Data reported in patent publication US20260083723A1, “THERAPEUTIC AGENT OR PROPHYLACTIC AGENT FOR AMYOTROPHIC LATERAL SCLEROSIS” (Toray Industries, Inc., priority 2022, published 2026).
Counter-ions that a name gives are not always drawn.

Tested on: not listed separately
Experiment: In vitro radical scavenging action (DPPH method)
Details: 1.2-100 μmol/L, 30 minutes at room temperature, absorbance at 517 nm
Procedure: The radical scavenging action of a test compound can be evaluated using an in vitro test and, for example, by a method (Antioxidants, 2019, vol. 258) using a stable radical, 1,1-diphenyl-2-picrylhydrazil (DPPH).
Radical scavenging action was evaluated using the DPPH method in the compound of Comparative Example 1, which is a tetrahydroquinoxaline derivative, and in the tetrahydroquinoline derivative (I) or a pharmaceutically acceptable salt thereof. The DPPH method was performed using an antioxidant capacity measurement kit (Dojindo Laboratories).
A test compound was dissolved in DMSO, and the resulting solution was then mixed with an assay buffer and a DPPH solution, which are included in the kit, to a total volume of 200 μL to obtain a final concentration of 10% DMSO, and the reaction was allowed to proceed. Wells added with […] ferrostatin-1, a radical scavenger, were grouped as “control,” and wells not added with test compound were grouped as “background”. The test compound was serially diluted 3-fold starting from a maximum concentration of 100 μmol/L, and the diluted test compound (1.2, 3.7, 11.1, 33.3, or 100 μmol/L) was added and allowed to react at room temperature. Thirty minutes after the reaction, the absorbance at 517 nm was measured, and the average absorbance value was calculated (N=2). The radical scavenging action of the test compound (hereinafter referred to as radical scavenging rate, %) was calculated based on Equation 2. The EC50 value of the test compound was calculated from the radical scavenging rate.
A note “no detection of radical scavenging action (N.D.),” is given to compounds with a EC50 of >100 μmol/L.

Row | Compound | EC50
1 | Cl.c1ccc(C2CCc3ccccc3N2)cc1 (stereo not shown) [Example 1, 2-phenyl-1,2,3,4-tetrahydroquinoline hydrochloride] | > 100 µM
2 | O=C(Cc1ccc2c(c1)CCC(c1ccccc1)N2)N1CC(O)C1 (stereo not shown) [Example 144, 1-(3-hydroxyazetidin-1-yl)-2-(2-phenyl-1,2,3,4-tetrahydroquinolin-6-yl)ethan-1-one hydrochloride] | > 100 µM
3 | O=C(Cc1ccc2c(c1)CCC(c1ccccc1)N2)N1CCOCC1 (stereo not shown) [Example 145, 1-morpholino-2-(2-phenyl-1,2,3,4-tetrahydroquinolin-6-yl)ethan-1-one] | > 100 µM
4 | CC1(C)CN(C(=O)Cc2ccc3c(c2)CCC(c2ccccc2)N3)C1 (stereo not shown) [Example 146, 1-(3,3-dimethylazetidin-1-yl)-2-(2-phenyl-1,2,3,4-tetrahydroquinolin-6-yl)ethan-1-one] | > 100 µM
5 | COC1CN(C(=O)Cc2ccc3c(c2)CCC(c2ccccc2)N3)C1 (stereo not shown) [Example 147, 1-(3-methoxyazetidin-1-yl)-2-(2-phenyl-1,2,3,4-tetrahydroquinolin-6-yl)ethan-1-one] | > 100 µM
6 | O=C(Cc1ccc2c(c1)CCC(c1ccccc1)N2)NC1COC1 (stereo not shown) [Example 148, N-(oxetan-3-yl)-2-(2-phenyl-1,2,3,4-tetrahydroquinolin-6-yl)acetamide] | > 100 µM

The remaining lines, values ahead:

Row | EC50 | Compound
7 | > 100 µM | O=C(Cc1ccc2c(c1)CCC(c1ccccc1)N2)N1CC(F)(F)C1 (stereo not shown) [Example 149, 1-(3,3-difluoroazetidin-1-yl)-2-(2-phenyl-1,2,3,4-tetrahydroquinolin-6-yl)ethan-1-one]
8 | > 100 µM | CN(CCO)C(=O)Cc1ccc2c(c1)CCC(c1ccccc1)N2 (stereo not shown) [Example 150, N-(2-hydroxyethyl)-N-methyl-2-(2-phenyl-1,2,3,4-tetrahydroquinolin-6-yl)acetamide]
9 | > 100 µM | O=C(Cc1ccc2c(c1)CCC(c1ccccc1)N2)N1CCC1 (stereo not shown) [Example 151, 1-(azetidin-1-yl)-2-(2-phenyl-1,2,3,4-tetrahydroquinolin-6-yl)ethan-1-one]
10 | > 100 µM | O=C(Cc1ccc2c(c1)CCC(c1ccccc1)N2)NC1CC1 (stereo not shown) [Example 152, N-cyclopropyl-2-(2-phenyl-1,2,3,4-tetrahydroquinolin-6-yl)acetamide]
11 | > 100 µM | O=C(Cc1ccc2c(c1)CCC(c1ccccc1)N2)NC1CCC1 (stereo not shown) [Example 155, N-cyclobutyl-2-(2-phenyl-1,2,3,4-tetrahydroquinolin-6-yl)acetamide]
12 | > 100 µM | O=C1CN(C(=O)Cc2ccc3c(c2)CCC(c2ccccc2)N3)CCN1 (stereo not shown) [Example 157]
13 | > 100 µM | O=C(Cc1ccc2c(c1)CCC(c1ccccc1)N2)N1CCNCC1 (stereo not shown) [Example 158, 2-(2-phenyl-1,2,3,4-tetrahydroquinolin-6-yl)-1-(piperazin-1-yl)ethan-1-one]
14 | > 100 µM | O=C(Cc1ccc2c(c1)CCC(c1ccccc1)N2)N1CC(F)(F)C1 (stereo not shown) [Example 160, 1-(3,3-difluoroazetidin-1-yl)-2-(2-phenyl-1,2,3,4-tetrahydroquinolin-6-yl)ethan-1-one]
15 | > 100 µM | O=C(Cc1ccc2c(c1)CCC(c1ccccc1)N2)N1CC(F)(F)C1 (stereo not shown) [Example 161, 1-(3,3-difluoroazetidin-1-yl)-2-(2-phenyl-1,2,3,4-tetrahydroquinolin-6-yl)ethan-1-one]

Tested on: Human fibrosarcoma cells (HT-1080 cells)
Experiment: In vitro inhibitory action against ferroptosis (Erastin-induced cell death, Cell Counting Kit-8)
Assay type: cell-based
Details: Evaluation concentration 30 μmol/L, Erastin 3 μmol/L, 24 hours
Procedure: The inhibitory action against ferroptosis of the tetrahydroquinoline derivative (I) or a pharmaceutically acceptable salt thereof was evaluated with Human fibrosarcoma cells (HT-1080 cells), by using, as an index, the inhibitory action against the cell death induced by treatment with a ferroptosis inducer, Erastin.
HT-1080 cells (ATCC) were cultured in a mixture (hereinafter referred to as vehicle) composed of DMEM/F12 (Thermo Fisher Scientific, Inc.), a final concentration of 10% fetal bovine serum (Thermo Fisher Scientific, Inc.), and a final concentration of 1% penicillin-streptomycin solution (Nacalai Tesque, Inc.). Cells were seeded into 96-well plates (Corning Inc.) at 5×10^4 cells/well and cultured overnight.
A test compound was dissolved in DMSO, and the resulting solution was diluted in the vehicle to a final concentration of 1% DMSO and then used. […] Twenty-four hours after the addition of Erastin, 5 μL of Cell Counting Kit-8 (Dojindo Laboratories) was added to each well and incubated for 4 hours, and the absorbance at 450 nm was then measured for each well (N=2). The average absorbance value at 450 nm was calculated from the absorbance values of the wells, and the inhibition rate of ferroptosis by the test compound (hereinafter referred to as ferroptosis inhibition rate, %) was then calculated based on Equation 1.

Row | Compound | Ferroptosis inhibition rate (%)
16 | 7-fluoro-(1H-pyrazol-4-yl)-1,2,3,4-tetrahydroquinoline [Example 140] | 72.81%

Tested on: superoxide dismutase 1 (SOD1) G93A transgenic mice
Experiment: Assessment of motor dysfunction in amyotrophic lateral sclerosis model mouse (hind limb extension test)
Assay type: in vivo
Details: 100 mg/kg orally once daily, five times a week, from 56 days of age for 10 weeks; male SOD1 G93A transgenic mice; n=9
Procedure: The effect of the tetrahydroquinoline derivative (I) or a pharmaceutically acceptable salt thereof on the onset of a motor dysfunction in superoxide dismutase 1 (SOD1) G93A transgenic mice that are amyotrophic lateral sclerosis model mice was tested. The tetrahydroquinoline derivative (I) or a pharmaceutically acceptable salt thereof was evaluated using the compound of Example 1. The amyotrophic lateral sclerosis model mice used were transgenic mice overexpressing human superoxide dismutase 1 (SOD1) with G93A mutation (Jackson Laboratories #004435). Male transgenic mice and wild-type female C57BL/6J mice from Charles River were mated. The tail tips of the born offspring mice were used for genotyping. The obtained male transgenic mice were used for the evaluation. The test substance (compound of Example 1) was prepared as a suspension with the required concentration (10 mg/mL) using 0.5 w/v % methylcellulose as the vehicle, and was administered repeatedly and orally, once daily, five times a week, at a dosing volume of 10 mL/kg, or 100 mg/kg, starting at 56 days of age and continuing for 10 weeks (50 doses in total) until the mice reached 126 days of age. A group administered repeatedly and orally with the compound of Example 1 was termed the “Example 1” group (n=9). In addition, a group administered with 0.5 w/v % methylcellulose in the same volume, frequency, and method as the compound of Example 1 was termed the “vehicle” group (n=6). Whenever possible, litters were divided into both groups. Starting from the beginning of administration, a hind limb extension test was conducted before each dose to evaluate the motor function. […] The hind limb extension test was performed five times a week.

Row | Compound | median value of the onset age in days
17 | Cl.c1ccc(C2CCc3ccccc3N2)cc1 (stereo not shown) [Example 1, 2-phenyl-1,2,3,4-tetrahydroquinoline hydrochloride] | 121.0 days of age

Same assay, conditions: 100 mg/kg orally once daily, five times a week, from 56 days of age for 10 weeks; significantly higher than vehicle group

Row | Compound | age of onset in days vs vehicle group, log-rank (Mantel-Cox) test p
18 | Cl.c1ccc(C2CCc3ccccc3N2)cc1 (stereo not shown) [Example 1, 2-phenyl-1,2,3,4-tetrahydroquinoline hydrochloride] | < 0.05

Same assay, conditions: compared to the vehicle group

Row | Compound | effect on onset of motor dysfunction in amyotrophic lateral sclerosis model mice (in words)
19 | Cl.c1ccc(C2CCc3ccccc3N2)cc1 (stereo not shown) [Example 1, 2-phenyl-1,2,3,4-tetrahydroquinoline hydrochloride] | delay the onset
